Measured values published in patent publication US10774081B2, “Indolo substituted piperidine compound as estrogen receptor down-regulator” (LUOXIN PHARMACEUTICAL (SHANGHAI) CO., LTD., priority 2016, dated 2020).

Tests used:
[1] = Tissue distribution evaluation of the drug (plasma and brain); assay type: in vivo; settings: mouse, mice, dosage 10 mpk, 21th day after administration, tissue collected near Tmax, read-out: Ratio of drug concentration Brain tissue/plasma
Protocol: Experiment 2: Tissue Distribution Evaluation of the Drug
On the 21th day after administration, select randomly three mice from the drug-administrated group, and collect their plasma samples at different timing, the mice were euthanized near Tmax, and the tumor, brain and breast samples were collected.
The procedure of collecting the plasma and tissue samples are as follows:
Plasma: Blood (60 μl) was collected using a 1.5 ml EDTA-K2 anticoagulation tube, the plasma was obtained after immediately centrifugation at 7000 rpm, at 4° C. for 10 mins, then the plasma simple was stored at −80° C. for drug concentration determination.
Tissue: Brain was collected using a 5 ml cryotube and immediately quick froze in liquid nitrogen. After sampling, tissues were stored at −80° C. for drug concentration determination used for comparing the distribution.

[2] = tested on: MCF-7 cells; assay: MCF-7 Cell Proliferation Inhibition Assay; assay type: cell-based; settings: Homo sapiens, MCF7, 144 h, 6 days incubation, CellTiter-Glo, read-out: MCF-7 cell proliferation suppression
Protocol: (1) MCF-7 Cell Proliferation Inhibition Assay
Substrate RPMI 1640, fetal calf serum, reagent Promega CellTiter-Glo. MCF-7 cell lines were purchased from the European Cell Culture Collection (ECACC). Envision multi-lable analyzer (PerkinElmer).
MCF-7 cells were seeded in black 384-well plates, each of the well has 600 cells in […] of cell suspension. The cell plates were placed in a carbon dioxide incubator overnight.
The compound to be tested was diluted by 5 times for 10 concentrations with Epmotion, ie., dilution from 0.25 mmol to 1.28 nmol, and replicated. 198 μl Medium was added to the middle plate, and 2 μl of each well of the gradient diluted compound was transferred to the correspondent position on the middle plate, and then 20 μl of each well was transferred to the cell plate after mixing. Then the cell plate was incubated in a carbon dioxide incubator for 6 days.
25 μl Promega CellTiter-Glo reagent was added into each well of the cell plate, the cell plate was then incubated for 10 mins at room temperature to stabilize the luminescence signal. PerkinElmer Envision multi-label analyser was used for readings.
The original data is converted to the inhibition rate using the equation (Max−Ratio)/(Max−Min)*100%, the value of IC50 also can be obtained by the curve fitting with four parameters. (by 205 model in XLFIT5,iDBS)

[3] = target: T1, estrogen receptor (Homo sapiens, UniProt P03372); assay: ER Degradation in MCF-7 Cell; assay type: cell-based; settings: MCF-7 cells, 20 hours incubation, ER antibody infrared fluorescence; read-out: MCF-7 ER degradation IC50 intracellular
T1 construct: endogenous in cells; host or cells: MCF-7 (ECACC)
T1 sequence (P03372 1-595): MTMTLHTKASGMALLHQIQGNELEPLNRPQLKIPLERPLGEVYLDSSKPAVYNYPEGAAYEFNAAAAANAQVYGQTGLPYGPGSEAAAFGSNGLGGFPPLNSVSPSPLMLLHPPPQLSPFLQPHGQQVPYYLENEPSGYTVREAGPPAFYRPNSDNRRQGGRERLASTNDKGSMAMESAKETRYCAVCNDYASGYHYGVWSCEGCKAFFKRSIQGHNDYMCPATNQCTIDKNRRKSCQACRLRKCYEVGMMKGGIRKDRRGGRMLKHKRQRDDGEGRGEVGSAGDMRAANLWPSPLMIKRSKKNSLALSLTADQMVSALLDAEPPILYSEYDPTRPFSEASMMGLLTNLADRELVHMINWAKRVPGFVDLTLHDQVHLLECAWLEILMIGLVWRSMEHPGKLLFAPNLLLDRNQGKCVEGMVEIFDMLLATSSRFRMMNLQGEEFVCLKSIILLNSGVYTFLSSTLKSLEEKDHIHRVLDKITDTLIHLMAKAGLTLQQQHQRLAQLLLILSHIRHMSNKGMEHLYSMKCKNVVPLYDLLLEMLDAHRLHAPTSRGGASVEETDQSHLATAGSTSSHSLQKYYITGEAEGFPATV
Protocol: Substrate RPMI 1640, fetal calf serum, PBS, 16% paraformaldehyde, Triton, confining liquid, estrogen receptor antibody, near0infrared goat anti-rabbit secondary antibody, DRAQ5 dye. The MCF-7 cell lines were purchased from the European Cell Culture Collection (ECACC). Odyssey infrared fluorescence scanning imaging system.
The MCF-7 cell was seeded in the black 384-well plate, each of the well has 3200 cells in 30 ml cell suspension. The cell plate were incubated in a carbon dioxide incubator for 4 days.
198 μl Medium was added into the middle plate and 2 μl each well of the gradient diluted compound was transferred to the correspond position on the middle plate, then the compound was transferred 20 μl per well after mixing to the cell plate. The cell plate was then incubated in a carbon dioxide incubator for 20 hours.
50 μl 8% Paraformaldehyde was added into each well of the cell plate, after incubation at room temperature for 30 min, the plate was washed by PBS twice, pat dried and 50 ul PBS containing 0.1% Triton was added, the plate was incubated at room temperature for 15 mins, then washed with PBS for 5 times, pat dried and 50 ul confining liquid was added and incubated at room temperature for 1 hour, pat dried and 50 ul confining liquid containing 0.1% estrogen receptor antibody was added and then left at 4° C. overnight. […]

[4] = in vivo; cited from earlier work
[5] = tested on: breast cancer; settings: intramuscularly administrated; cited from earlier work

Row | Kp [1] | IC50 [2] [nM] | DC50 [3] [nM] | Compound | oral bioavailability [4] | breast cancer patients showing clinical response [5] [%]
1 | 5.8 |  |  | C[C@@H]1Cc2c([nH]c3ccccc23)[C@@H](c2c(F)cc(OCCN3CC(CF)C3)cc2F)N1CC(C)(C)F [(II)] |  | 
2 | 13.1 | 1.17 | 1.13 | CC1Cc2c([nH]c3ccccc23)C(c2c(F)cc(OCCN3CC(CC#N)C3)cc2F)N1CC(F)(F)F (stereo not shown) [(I)] |  | 
3 |  | 1.77 |  | C[C@]12CC[C@@H]3c4ccc(O)cc4C[C@@H](CCCCCCCCC[S+]([O-])CCCC(F)(F)C(F)(F)F)[C@H]3[C@@H]1CC[C@@H]2O (stereo partly shown) [Fulvestrant] | zero | 50
